Source: ChEMBL document CHEMBL5058564, “EUbOPEN Chemogenomics Library 2 (Incucyte)” (2022)

Columns and labels:
Format in all cases: toxicity, cell-based
Fibroblast = test: Incucyte cell viability with human fibroblast; settings: 10 µM, compound concentration 10 uM
HEK-293T = test: Incucyte cell viability with HEK293T; settings: human, 10 µM, compound concentration 10 uM
U2OS = test: Incucyte cell viability with U2OS; settings: human, 10 µM, compound concentration 10 uM
[1] = 0 h, replicate number 1, timepoint 0 hours
[2] = 0 h, replicate number 2, timepoint 0 hours
[3] = 12 h, replicate number 2, timepoint 12 hours
[4] = 18 h, replicate number 2, timepoint 18 hours
[5] = 24 h, replicate number 2, timepoint 24 hours
[6] = 6 h, replicate number 1, timepoint 6 hours
[7] = 12 h, replicate number 1, timepoint 12 hours
[8] = 18 h, replicate number 1, timepoint 18 hours
[9] = 24 h, replicate number 1, timepoint 24 hours
[10] = 6 h, replicate number 2, timepoint 6 hours
Note: unitless GR value; below 1 slowed growth and below 0 cell loss.

Compound	Growth Rate (Fibroblast; [2])	Growth Rate (Fibroblast; [3])	Growth Rate (Fibroblast; [4])	Growth Rate (Fibroblast; [5])	Growth Rate (HEK-293T; [1])	Growth Rate (HEK-293T; [6])	Growth Rate (HEK-293T; [3])	Growth Rate (HEK-293T; [4])	Growth Rate (HEK-293T; [5])	Growth Rate (U2OS; [6])	Growth Rate (U2OS; [3])	Growth Rate (U2OS; [4])	Growth Rate (U2OS; [5])	Growth Rate (Fibroblast; [7])	Growth Rate (Fibroblast; [9])	Growth Rate (HEK-293T; [10])	Growth Rate (HEK-293T; [7])	Growth Rate (HEK-293T; [8])	Growth Rate (HEK-293T; [9])	Growth Rate (U2OS; [2])	further results
CC(C)(C)c1cc(NC(=O)Nc2ccc(-c3cn4c(n3)sc3cc(OCCN5CCOCC5)ccc34)cc2)no1 [QUIZARTINIB]	0.43	1	0.89	0.78	0.2	-0.18	-0.06	0.17	0.22	0.41	0.51	0.52	0.65								Growth Rate (Fibroblast; [1]): -0.84
O=C(NCCO)c1cccc(-c2cc(Nc3ccc(OC(F)(F)F)cc3)ncn2)c1	0.6	0.04	0.03	0.06		-0.41	-0.13	0.17	0.26	0.49	0.83	0.99	0.91	-0.72	-0.55	-0.4	-0.19	0.05	0.15	0.42	Growth Rate (Fibroblast; [6]): -0.91; Growth Rate (Fibroblast; [8]): -0.61; Growth Rate (U2OS; [1]): -0.12; Growth Rate (U2OS; [10]): 1; Growth Rate (U2OS; [7]): 0.52; Growth Rate (U2OS; [8]): 0.47; Growth Rate (U2OS; [9]): 0.79
COC1(C[S@@+]([O-])c2ccccc2)CCN(CCc2c[nH]c3ccc(F)cc23)CC1		0.15	0.53	0.79	0.79		0.77			-0.09				0.32	0.53	0.72		0.91	0.8	-1	Growth Rate (Fibroblast; [6]): 0.42; Growth Rate (Fibroblast; [10]): -0.24; Growth Rate (Fibroblast; [8]): 0.49; Growth Rate (U2OS; [1]): 0.42
O=C(Nc1cc(C(F)(F)F)ccc1N1CCN(Cc2ccccn2)CC1)c1ccc(-c2ccncc2)o1		0.06	0.16	0.56	0.95	0.44	-0.05	-0.19	-0.11		0.93	0.83	0.76	-0.19	0.21	0.41	-0.16	-0.1	-0.03	-1	Growth Rate (Fibroblast; [1]): 0.86; Growth Rate (Fibroblast; [6]): 0.13; Growth Rate (Fibroblast; [10]): -0.21; Growth Rate (Fibroblast; [8]): 0.1; Growth Rate (HEK-293T; [2]): 0.73; Growth Rate (U2OS; [1]): -0.79
COC(=O)N1CCN(C(=O)Cc2ccc(Cl)c(Cl)c2)C(CN2CCCC2)C1.O=C(O)/C=C/C(=O)O (configuration not stated)	0.83				1		0.72			0.36	0.54	0.75	0.76								Growth Rate (Fibroblast; [10]): 0.71; Growth Rate (U2OS; [10]): 0.4; Growth Rate (U2OS; [7]): 0.75
CCCCC(=O)N(Cc1ccc(-c2ccccc2-c2nnn[nH]2)cc1)[C@H](C(=O)O)C(C)C	0.94	0.96				0.44	0.94			0.76	0.99	0.92				0.43	0.75	0.6	0.8	-0.99	Growth Rate (Fibroblast; [10]): 0.44; Growth Rate (HEK-293T; [2]): 0.85
Cc1cc(C)cc(C(=O)NOCCCCCC(=O)NO)c1	0.7						0.67	0.37	0.32	0.82	0.5	0.4	0.36	0.99	0.77		0.54	0.24	0.15	-0.5	Growth Rate (Fibroblast; [1]): -0.03; Growth Rate (HEK-293T; [2]): 0.38; Growth Rate (U2OS; [1]): 0.03; Growth Rate (U2OS; [10]): 0.51; Growth Rate (U2OS; [7]): 0.43; Growth Rate (U2OS; [8]): 0.34; Growth Rate (U2OS; [9]): 0.37
OC[C@H]1O[C@@H](n2cnc3c(NC4CCCC4)ncnc32)[C@H](O)[C@@H]1O [N6-CYCLOPENTYLADENOSINE]	-0.09			0.92	-0.12	0.92	0.6	0.65	0.66	0.36	0.94	0.93	1			0.12	0.81	0.75	0.73		Growth Rate (Fibroblast; [1]): 0.37; Growth Rate (HEK-293T; [2]): -0.14; Growth Rate (U2OS; [10]): 0.74; Growth Rate (U2OS; [7]): 0.69; Growth Rate (U2OS; [8]): 0.53; Growth Rate (U2OS; [9]): 0.71
CC(C)CC(=O)Nc1cncc(-c2ccc3[nH]nc(-c4nc5c(-c6cccc(F)c6)cncc5[nH]4)c3c2)c1 [LORECIVIVINT]	0.49	-0.03	0.01	-0.02		-0.81	-0.81	-0.64	-0.57	-0.82	0.32	0.98		0.36	0.43	-0.95	-0.55	-0.48	-0.44	-0.94	Growth Rate (Fibroblast; [6]): -0.2; Growth Rate (Fibroblast; [10]): -0.06; Growth Rate (Fibroblast; [8]): 0.73; Growth Rate (U2OS; [1]): -0.33; Growth Rate (U2OS; [10]): -0.16; Growth Rate (U2OS; [7]): -0.56; Growth Rate (U2OS; [8]): -0.16; Growth Rate (U2OS; [9]): 0.71
